Patent US20260262643A1, “HERBICIDAL BENZOXAZINES” (FMC CORPORATION, priority 2022, published 2026)
Like-named read-outs stand apart in the source and are kept apart here.

Columns and labels:
[1] = system: ragweed; experiment: Test A postemergence; assay type: in vivo, Ambrosia artemisiifolia; conditions: Ambrosia artemisiifolia, post-emergence, 240 h; for pest or weed control at 125 g/ha: 125 g ai/ha; for pest or weed control at 500 g/ha: 500 g ai/ha
In short: (§1)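 Plants were grown in loam and sand and treated preemergence or postemergence (one- to two-leaf stage, 2–10 cm) with compound in solvent plus surfactant. Response was scored against untreated controls after 10 greenhouse days, where 0 means no effect and 100 complete control.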

[2] = system: corn; experiment: Test A preemergence; assay type: in vivo, Zea mays; conditions: Zea mays, pre-emergence, 240 h; for Corn plant response rating (crop injury, 0 = no effect, 100 = complete kill) at 125 g/ha: 125 g ai/ha; for Corn plant response rating (crop injury, 0 = no effect, 100 = complete kill) at 500 g/ha: 500 g ai/ha
In short: as §1

[3] = system: horseweed; experiment: Test A postemergence; assay type: in vivo, Erigeron canadensis; conditions: Erigeron canadensis, post-emergence, 240 h, postemergence, 10 days, 0 to 100 scale (0 no effect, 100 complete control)
In short: as §1

[4] = system: barnyardgrass; experiment: Test B flooded paddy test; assay type: in vivo, Echinochloa crus-galli; conditions: Echinochloa crus-galli, 312 h, 250 g ai/ha, Flood, 13 days, 0 to 100 scale (0 no effect, 100 complete control); read-out: Plant response rating, Barnyardgrass
In short: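 Application into standing water (3 cm above soil) at the two-leaf stage; flood depth held constant. Evaluation: day 13, visual comparison with controls, 0 = no injury, 100 = complete control.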

[5] = system: wheat; experiment: Test A preemergence; assay type: in vivo, Triticum aestivum; conditions: Triticum aestivum, pre-emergence, 240 h, read-out: Plant response rating, Wheat; for plant injury at 125 g/ha: 125 g ai/ha; for plant injury at 500 g/ha: 500 g ai/ha
In short: as §1

[6] = system: soybean; experiment: Test A postemergence; assay type: in vivo, Glycine max; conditions: Glycine max, post-emergence, 240 h; for plant injury at 125 g/ha: 125 g ai/ha; for plant injury at 500 g/ha: 500 g ai/ha
In short: as §1

[7] = system: ragweed; experiment: Test A preemergence; assay type: in vivo, Ambrosia artemisiifolia; conditions: Ambrosia artemisiifolia, pre-emergence, 240 h, read-out: Plant response rating, Ragweed; for pest or weed control at 125 g/ha: 125 g ai/ha; for pest or weed control at 500 g/ha: 500 g ai/ha
In short: as §1

[8] = system: pigweed, palmer; experiment: Test A preemergence; assay type: in vivo, Amaranthus palmeri; conditions: Amaranthus palmeri, pre-emergence, 240 h, read-out: Plant response rating, Pigweed, Palmer; for pest or weed control at 125 g/ha: 125 g ai/ha; for pest or weed control at 500 g/ha: 500 g ai/ha
In short: as §1

[9] = system: corn; experiment: Test A postemergence; assay type: in vivo, Zea mays; conditions: Zea mays, post-emergence, 240 h; for Corn plant response rating (crop injury, 0 = no effect, 100 = complete kill) at 500 g/ha: 500 g ai/ha
In short: as §1

[10] = system: kochia; experiment: Test A postemergence; assay type: in vivo, Bassia scoparia; conditions: Bassia scoparia, post-emergence, 240 h; for pest or weed control at 125 g/ha: 125 g ai/ha; for pest or weed control at 500 g/ha: 500 g ai/ha
In short: as §1

[11] = system: pigweed, palmer; experiment: Test A postemergence; assay type: in vivo, Amaranthus palmeri; conditions: Amaranthus palmeri, post-emergence, 240 h; for pest or weed control at 125 g/ha: 125 g ai/ha; for pest or weed control at 500 g/ha: 500 g ai/ha
In short: as §1

[12] = system: ryegrass, Italian; experiment: Test A preemergence; assay type: in vivo, Lolium multiflorum; conditions: Lolium multiflorum, pre-emergence, 240 h, read-out: Plant response rating, Ryegrass, Italian; for pest or weed control at 125 g/ha: 125 g ai/ha; for pest or weed control at 500 g/ha: 500 g ai/ha
In short: as §1

[13] = system: foxtail, giant; experiment: Test A postemergence; assay type: in vivo, Setaria faberi; conditions: Setaria faberi, post-emergence, 240 h, read-out: Plant response rating, Foxtail, Giant
In short: as §1

[14] = system: foxtail, giant; experiment: Test A preemergence; assay type: in vivo, Setaria faberi; conditions: Setaria faberi, pre-emergence, 240 h, read-out: Plant response rating, Foxtail, Giant
In short: as §1

[15] = postemergence, 10 days, visual injury, 0 to 100 scale (0 no effect, 100 complete control), read-out: Plant response rating, Ragweed
[16] = visual injury after 10 days, 0 to 100 scale, 0 is no effect, 100 is complete control
[17] = postemergence, 10 days, visual injury, 0 to 100 scale (0 no effect, 100 complete control), read-out: Plant response rating, Soybean
[18] = postemergence, 10 days, visual injury, 0 to 100 scale (0 no effect, 100 complete control), read-out: Plant response rating, Kochia
[19] = postemergence, 10 days, visual injury, 0 to 100 scale (0 no effect, 100 complete control), read-out: Plant response rating, Pigweed, Palmer
[20] = 0 to 100 scale (0 no effect, 100 complete control), 10 days
[21] = 125 g ai/ha, postemergence, 10 days, visual injury, 0 to 100 scale (0 no effect, 100 complete control)

Structure (SMILES): CC(C)c1ncn(-c2cc3c(c(C(=O)N4C[C@H](C)Oc5c(Cl)cccc54)c2)OCC3)n1 [Compound 147]
- pest or weed control at 125 g/ha ([1]; postemergence, 10 days, 0 to 100 scale (0 no effect, 100 complete control), read-out: Ragweed plant response rating): 0%
- pest or weed control at 500 g/ha [1, 15]: 30%
- Corn plant response rating (crop injury, 0 = no effect, 100 = complete kill) at 125 g/ha ([2]; 0 to 100 scale): 0%
- Corn plant response rating (crop injury, 0 = no effect, 100 = complete kill) at 500 g/ha [2, 16]: 10%
- pest or weed control at 125 g/ha ([3]; 125 g ai/ha, read-out: Horseweed plant response rating): 0%
- pest or weed control at 500 g/ha ([3]; 500 g ai/ha, visual injury, read-out: Plant response rating, Horseweed): 0%
- pest or weed control at 250 g/ha [4]: 0%
- plant injury at 125 g/ha ([5]; 0 to 100 scale): 20%
- plant injury at 500 g/ha [5, 16]: 50%
- plant injury at 125 g/ha ([6]; postemergence, 10 days, 0 to 100 scale (0 no effect, 100 complete control), read-out: Soybean plant response rating): 100%
- plant injury at 500 g/ha [6, 17]: 100%
- pest or weed control at 125 g/ha ([7]; 0 to 100 scale): 0%
- pest or weed control at 500 g/ha [7, 16]: 0%
- pest or weed control at 125 g/ha ([8]; 0 to 100 scale): 90%
- pest or weed control at 500 g/ha [8, 16]: 100%
- plant injury at 125 g/ha ([9]; 125 g ai/ha, postemergence, 10 days, 0 to 100 scale (0 no effect, 100 complete control), read-out: Corn plant response rating): 10%
- Corn plant response rating (crop injury, 0 = no effect, 100 = complete kill) at 500 g/ha ([9]; postemergence, 10 days, visual injury, 0 to 100 scale (0 no effect, 100 complete control)): 90%
- pest or weed control at 125 g/ha ([10]; postemergence, 10 days, 0 to 100 scale (0 no effect, 100 complete control), read-out: Kochia plant response rating): 60%
- pest or weed control at 500 g/ha [10, 18]: 90%
- pest or weed control at 125 g/ha ([11]; postemergence, 10 days, 0 to 100 scale (0 no effect, 100 complete control), read-out: Pigweed, Palmer plant response rating): 80%
- pest or weed control at 500 g/ha [11, 19]: 90%
- pest or weed control at 125 g/ha ([12]; 0 to 100 scale): 90%
- pest or weed control at 500 g/ha [12, 16]: 100%

Structure (SMILES): Cc1cccc2c1O[C@@H](C)CN2C(=O)c1cccc(-n2cnc(Br)n2)c1 [Compound 61, [3-(3-Bromo-1H-1,2,4-triazol-1-yl)phenyl][(2S)-2,3-dihydro-2,8-dimethyl-4H-1,4-benzoxazin-4-yl]methanone]
- pest or weed control at 125 g/ha [1, 15]: 30%
- pest or weed control at 500 g/ha ([1]; Postemergence, 0 to 100 scale, read-out: Plant response rating, Ragweed): 40%
- Corn plant response rating (crop injury, 0 = no effect, 100 = complete kill) at 125 g/ha [2, 16]: 0%
- Corn plant response rating (crop injury, 0 = no effect, 100 = complete kill) at 500 g/ha [2, 20]: 0%
- pest or weed control at 250 g/ha [4]: 0%
- plant injury at 125 g/ha [5, 16]: 0%
- plant injury at 500 g/ha [5, 20]: 20%
- plant injury at 125 g/ha [6, 17]: 100%
- plant injury at 500 g/ha ([6]; Postemergence, 0 to 100 scale, read-out: Plant response rating, Soybean): 100%
- pest or weed control at 125 g/ha [7, 16]: 0%
- pest or weed control at 500 g/ha [7, 20]: 40%
- pest or weed control at 125 g/ha [8, 16]: 60%
- pest or weed control at 500 g/ha [8, 20]: 90%
- Corn plant response rating (crop injury, 0 = no effect, 100 = complete kill) at 125 g/ha [9, 21]: 10%
- Corn plant response rating (crop injury, 0 = no effect, 100 = complete kill) at 500 g/ha ([9]; Postemergence, 0 to 100 scale): 10%
- pest or weed control at 125 g/ha [13, 21]: 60%
- pest or weed control at 500 g/ha ([13]; 500 g ai/ha, Postemergence, 0 to 100 scale): 80%
- pest or weed control at 125 g/ha ([14]; 125 g ai/ha, visual injury after 10 days, 0 to 100 scale, 0 is no effect, 100 is complete control): 90%
- pest or weed control at 500 g/ha ([14]; 500 g ai/ha, 0 to 100 scale (0 no effect, 100 complete control), 10 days): 90%
- pest or weed control at 125 g/ha [10, 18]: 20%
- pest or weed control at 500 g/ha ([10]; Postemergence, 0 to 100 scale, read-out: Plant response rating, Kochia): 70%
- pest or weed control at 125 g/ha [11, 19]: 40%
- pest or weed control at 500 g/ha ([11]; Postemergence, 0 to 100 scale, read-out: Plant response rating, Pigweed, Palmer): 50%
- pest or weed control at 125 g/ha [12, 16]: 90%
- pest or weed control at 500 g/ha [12, 20]: 100%
